Series [1] concerns M. tuberculosis strain H37Rv (ATCC 27294). As to the kind of experiment: microbe, parasite or virus in culture. The format is cell-based, Mycobacterium tuberculosis. Conditions: Mycobacterium tuberculosis.
The test system of series [2] is Candida albicans (ATCC 10231). As to the kind of experiment: MIC against nonmycobacteria (OD570). The format is cell-based. Conditions: ATCC10231, C. albicans. The text has this:
(§1) Standard compounds used were ampicillin (AMP) and gentamicin (GEN). […] Amphotericin B (AmphB) and ketoconazole (KETO) were used as standard compounds.

The subject of series [3] is Escherichia coli (ATCC 25922). As to the kind of experiment: MIC against nonmycobacteria (OD570). In kind it is cell-based. Conditions: ATCC25922, E. coli.
Excerpt: as §1

In series [4] the test system is Staphylococcus aureus (ATCC 29213). In words: MIC against nonmycobacteria (OD570). In kind it is cell-based. Conditions: ATCC29213, S. aureus.
Excerpt: as §1

For series [5], the system named is M. abscessus (ATCC 19977). In words: microbe, parasite or virus in culture. In kind it is cell-based, Mycobacterium abscessus. Conditions: read-out: MIC.
Series [6] has as its system M. marinum (ATCC 927). In words: microbe, parasite or virus in culture. The format is cell-based. Conditions: Mycobacterium marinum, ATCC927; M. marinum; read-out: MIC.
Series [7] relates to M. avium (ATCC 15769). As to the kind of experiment: microbe, parasite or virus in culture. In kind it is cell-based. Conditions: Mycobacterium avium, ATCC15769; M. avium; read-out: MIC.
The test system of series [8] is Vero cell (ATCC CRL-81). In words: cells. Conditions: Chlorocebus sabaeus, 72 h. In kind it is cell-based.
Series [9] concerns J774A.1 macrophage (ATCC TIB-67). As to the kind of experiment: Cytotoxicity in mammalian cells (resazurin). In kind it is cell-based, murine. Conditions: Mus musculus, J774.A1; J774, 72 h. Background: Resazurin is reduced to fluorescent resorufin, in cell work by metabolically active cells.
Series [10] deals with MDA-MB-231 breast cancer cells. In words: Cytotoxicity against cancer cell lines (CellTiter 96). Conditions: Homo sapiens, MDA-MB-231, 72 h. In kind it is cell-based. As to the method: (§2) Human melanoma cancer cells (MDA-MB-435), human breast cancer cells (MDA-MB-231), and human ovarian cancer cells (OVCAR3) were purchased from the American Type Culture Collection (Manassas, VA). Each cell line was propagated at 37°C in 5% CO2 in RPMI 1640 medium supplemented with FBS (10%), penicillin (100 U/ml), and streptomycin (100 μg/ml). Cells in log phase were harvested by trypsinization, followed by two washing cycles to remove all traces of enzyme. A total of 5,000 cells were seeded per well of a 96-well clear, flat-bottom plate (Microtest 96; Falcon) and incubated overnight (37°C in 5% CO2). Samples dissolved in DMSO were then diluted and added to the respective wells. The cells were incubated in the presence of test substance for 72 h at 37°C and evaluated for viability with a commercial absorbance assay (CellTiter 96 AQueous One Solution cell proliferation assay; Promega Corp., Madison, WI) that measured viable cells. IC50 values are expressed in micromolar values relative to the solvent (DMSO) control.

In series [11] the test system is MDA-MB-435 melanoma cells. The description is as above. The format is cell-based. Conditions: Homo sapiens, MDA-MB-435, 72 h. As to the method: as §2
For series [12], the system named is OVCAR 3 ovarian cancer cells. Described as above. In kind it is cell-based. Conditions: Homo sapiens; OVCAR 3, 72 h. As to the method:
as §2

The subject of series [13] is nonreplicating cultures of M. tuberculosis. In words: microbe, parasite or virus in culture. The format is cell-based, Mycobacterium tuberculosis.
The subject of series [14] is M. tuberculosis Erdman (ATCC 35801) in J774A.1 macrophages. In kind it is cell-based, Mycobacterium tuberculosis.
In series [15] the target is ClpC1 (Mycobacterium tuberculosis, UniProt P9WPC9). The format is biochemical, M. tuberculosis.
ClpC1, sequence (P9WPC9 whole entry): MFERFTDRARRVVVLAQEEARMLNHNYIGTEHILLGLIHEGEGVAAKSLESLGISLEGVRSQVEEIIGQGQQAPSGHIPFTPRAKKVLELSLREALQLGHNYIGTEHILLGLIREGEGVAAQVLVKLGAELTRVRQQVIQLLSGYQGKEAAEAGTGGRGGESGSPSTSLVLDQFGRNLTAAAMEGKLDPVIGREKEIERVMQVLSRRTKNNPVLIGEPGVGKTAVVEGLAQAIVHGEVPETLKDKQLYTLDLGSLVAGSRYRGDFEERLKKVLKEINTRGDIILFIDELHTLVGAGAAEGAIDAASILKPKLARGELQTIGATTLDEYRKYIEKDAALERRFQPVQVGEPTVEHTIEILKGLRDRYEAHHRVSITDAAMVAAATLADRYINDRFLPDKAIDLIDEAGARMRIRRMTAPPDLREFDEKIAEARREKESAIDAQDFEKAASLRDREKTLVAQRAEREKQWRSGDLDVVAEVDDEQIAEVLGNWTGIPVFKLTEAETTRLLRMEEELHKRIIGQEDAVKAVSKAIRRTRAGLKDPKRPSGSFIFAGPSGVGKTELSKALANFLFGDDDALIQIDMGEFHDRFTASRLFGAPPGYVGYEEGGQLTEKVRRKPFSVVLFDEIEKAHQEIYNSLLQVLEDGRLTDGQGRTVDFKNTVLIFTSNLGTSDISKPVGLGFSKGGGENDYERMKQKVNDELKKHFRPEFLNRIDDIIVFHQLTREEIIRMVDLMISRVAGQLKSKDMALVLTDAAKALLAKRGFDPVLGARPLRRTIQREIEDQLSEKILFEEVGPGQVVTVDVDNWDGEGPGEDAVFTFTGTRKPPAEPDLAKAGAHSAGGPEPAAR
In series [16] the target is ClpC1/P1/P2 complex (Mycobacterium tuberculosis, UniProt P9WPC9). In kind it is biochemical, M. tuberculosis.
ClpC1/P1/P2 complex, sequence (P9WPC9 whole entry, one chain of several): as the sequence (P9WPC9 whole entry) above
Series [17] in a line: in vivo. On the set-up: species or system BALB/c mice. Conditions: mice, single i.v. 5 mg/kg. The protocol:
Healthy female BALB/c mice were administered a single dose (5 mg/kg) of RUFI intravenously (i.v.; tail vein). RUFI was formulated using 10% ethanol (EtOH), 40% 10% (2-hydroxypropyl)-β-cyclodextrin (HP-β-CD) solution, and 50% PEG 400. RUFI was first dissolved in 0.102 ml of EtOH, vortexed and sonicated until clear, and then diluted with 0.508 ml of PEG 400 with additional vortex treatment and sonication until clear. Finally, 0.406 ml of 10% HP-β-CD was added to the solution. Then 20 μl of this formulation was pipetted into a 10-ml volumetric flask, and methanol (MeOH) was added to a final concentration of 1 mg/ml. The accuracy of the formulation concentration was verified via high-performance liquid chromatography-tandem mass spectrometry (HPLC-MS/MS) (AB Sciex 6500+; SCIEX, Framingham, MA) by electrospray using multiple reaction monitoring (MRM; 1065.63/1047.70) in positive ion mode. LC was performed with a Kinetex EVO C18 column (50 mm by 3.00 mm [inside diameter], 2.6-μm particle size, 100-Å pore size) using a gradient of 0.1% formic acid (FA) in water–0.1% FA in acetonitrile (ACN) (25% ACN to 95% ACN in 1.5 min) at a flow rate of 0.8 ml/min.
Blood samples (10 μl) were collected via saphenous vein puncture at 5, 15, and 30 min and 1, 2, 4, 8, and 25 h. […] A standard curve was determined by using RUFI spiked into untreated mouse plasma.

Series [18] relates to M. abscessus. In words: MBC against M. abscessus. Conditions: Mycobacteroides abscessus.
Procedure: Parallel plates were processed as described for M. tuberculosis. The plates were incubated at 37°C for 5 days before CFU determination.

One molecule from PMC6395927, “Rufomycin Targets ClpC1 Proteolysis in Mycobacterium tuberculosis and M. abscessus” (Antimicrobial Agents and Chemotherapy, 2019) can be followed below.

≈ marks a conversion by molar mass, not a printed value. Entries after “also recorded” stand apart in the source; their conditions may differ. Like-named read-outs stand apart in the source and are kept apart here.

For orientation: IC50 means the concentration that inhibits the measured activity by half. Read a low IC50 as greater potency. The inhibition is the percentage by which the read-out fell short of the control. Read a low inhibition as a weak effect. Usually half-life stands for the time needed for the level to fall by half in the phase considered. For `C/C=C/C[C@@H]1NC(=O)[C@H](CC(C)C)N2C(=O)C(C[C@H](C)[C@H]2O)N(C)C(=O)[C@H](C)NC(=O)[C@H](Cc2ccc(O)c([N+](=O)[O-])c2)NC(=O)[C@H](CC(C)C)N(C)C(=O)[C@H](Cc2cn(C(C)(C)C3CO3)c3ccccc23)NC1=O` (some centres unmarked) [RUFI, rufomycin I], the MIC in series [1] is 0.02 µM (≈ 0.0208 µg/mL); in [1] (read-out: MIC against M. tuberculosis), 0.01 µM (≈ 0.0104 µg/mL); in series [2], over 10 µM; in [3], over 10 µM; in series [4], over 10 µM; in [5] (M. abscessus), 0.42 µM (≈ 0.438 µg/mL). Besides, the MIC in series [5] (Mycobacteroides abscessus, ATCC19977, M. abscessus) is 0.4 µM (≈ 0.417 µg/mL); in [6], under 0.02 µM; in [7], 1.75 µM (≈ 1.82 µg/mL); in series [13] (Mycobacterium tuberculosis) it was over 10 µM. In addition, the half-maximal inhibitory concentration (IC50) in series [8] was over 50 µM; in series [9], 13 µM; in [10] it was 7.7 µM; in series [11] it was 12 µM; in [12] it was 14 µM. Also, the results for the MBC result in series [13] and in series [18] were “lacks this activity” and 1.2 µM (≈ 1.25 µg/mL), respectively. Moreover, the inhibition at 10 µM in [13] (Mycobacterium tuberculosis) is 75%. Besides, the “activity against M. tuberculosis in murine macrophages (CFU)” value in series [14] is listed as “even more potent than rifampin”. Besides, the “effect on ClpC1 ATPase activity” value in series [15] is “no significant effect; also recorded: mild and insignificant inhibitory effect”. Also, in [16], the “effect on proteolytic activity of ClpC1/P1/P2 (FITC-casein degradation)” value is listed as “significantly decreased the proteolytic capabilities; also recorded: strongly inhibited”. For the same molecule, the half-life in [17] (female, BALB/c, mouse, in vivo, iv, plasma, mean n = 3, read-out: terminal half-life (converted)) is 1 h. In addition, the clinical abnormalities entry in series [17] is “no clinical abnormalities observed”.
